Columns and labels:
[1] = target: human A2a adenosine receptor (Homo sapiens (Human), UniProt P29274); assay: A2a receptor affinity radioligand binding assay ([3H] SCH58261, membranes from HEK293 or CHO cells); conditions: unstarred values: radioligand binding
Outline: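 Displacement of tritiated SCH58261 (working dilution 4 nM) from recombinant human A2a receptor membranes (HEK293 or CHO), 60 min at room temperature in Tris pH 7.4/MgCl2 buffer after 15–30 min compound preincubation. Scintillation counting after filtration; normalized percent effect fitted 4-parameter logistic for IC50.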

[2] = target: human A2b adenosine receptor (Homo sapiens (Human), UniProt P29275); assay: A2B antagonism in cAMP cell-based assay (LANCE cAMP, HEK293 cells, 600 nM adenosine); conditions: values marked *: cAMP cell-based assay
Sequence of human A2b adenosine receptor (P29275 whole entry): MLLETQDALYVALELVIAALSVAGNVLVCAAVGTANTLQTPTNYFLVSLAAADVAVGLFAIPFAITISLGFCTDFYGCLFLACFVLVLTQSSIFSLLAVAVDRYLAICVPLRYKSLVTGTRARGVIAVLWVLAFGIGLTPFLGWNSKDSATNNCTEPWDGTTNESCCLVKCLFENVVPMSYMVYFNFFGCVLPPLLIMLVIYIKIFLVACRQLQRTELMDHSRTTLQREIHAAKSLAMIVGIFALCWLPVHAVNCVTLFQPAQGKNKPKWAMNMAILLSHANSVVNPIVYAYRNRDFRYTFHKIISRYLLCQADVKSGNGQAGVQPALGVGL
Procedure: Measurement of A2A and A2B Antagonism in cAMP Cell-Based Assay
All subsequent liquid additions were performed using a multichannel pipettor. […] After this time 5 μL of either 300 nM or 600 nM adenosine (Sigma Cat. No. A9251) for A2A and A2B respectively was added and incubated for 30 minutes at 37° C. and 5% CO2 in a humidified environment. At this time detection mix was prepared by combining the LANCE Eu-W8044 labeled streptavidin and. Biotin-cAMP in detection buffer according to the manufacturers protocol. […] Curve fitting of the percent effect data versus the log of compound concentration used a 4-parameter concentration response curve fitting algorithm to calculate IC50 values.

Sequence of human A2a adenosine receptor (P29274 whole entry): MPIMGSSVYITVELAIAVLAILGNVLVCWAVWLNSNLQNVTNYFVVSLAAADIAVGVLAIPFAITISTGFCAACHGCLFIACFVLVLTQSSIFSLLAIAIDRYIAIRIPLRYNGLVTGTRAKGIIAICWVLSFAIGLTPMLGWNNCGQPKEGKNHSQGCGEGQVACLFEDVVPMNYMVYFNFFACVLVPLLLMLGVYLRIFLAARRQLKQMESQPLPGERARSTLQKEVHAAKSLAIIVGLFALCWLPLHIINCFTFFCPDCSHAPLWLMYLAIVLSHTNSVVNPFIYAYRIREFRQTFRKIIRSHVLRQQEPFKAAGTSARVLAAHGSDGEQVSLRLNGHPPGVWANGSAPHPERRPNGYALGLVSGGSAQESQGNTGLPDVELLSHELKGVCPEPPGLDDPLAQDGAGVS

Row | IC50 [1] [µM] | IC50 [2] [µM] | SMILES
1 | 0.0008 | 3.7 | COc1cccc2c1nc(N)n1nc([C@@H]3CCCN(c4c(C)nn(C)c4C)C3)nc21 [Example 11, (R)-7-methoxy-2-(1-(1,3,5-trimethyl-1H-pyrazol-4-yl)piperidin-3-yl)-[1,2,4]triazolo[1,5-c]quinazolin-5-amine]
2 | 0.0006 | 0.104 | COc1cccc2c1nc(N)n1nc([C@@H]3CCCN(c4cnn5ncccc45)C3)nc21 [Example 12, (R)-7-methoxy-2-(1-(pyrazolo[1,5-b]pyridazin-3-yl)-piperidin-3-yl)-[1,2,4]triazolo[1,5-c]quinazolin-5-amine]
3 | 0.0009 | 0.112 | COc1cccc2c1nc(N)n1nc([C@@H]3CCCN(c4cnn5c4CCC5)C3)nc21 [Example 13, (R)-2-(1-(5,6-dihydro-4H-pyrrolo[1,2-b]pyrazol-3-yl)piperidin-3-yl)-7-methoxy-[1,2,4]triazolo[1,5-c]quinazolin-5-amine]
4 | 0.0007 | 0.031 | COc1cccc2c1nc(N)n1nc([C@@H]3CCCN(c4cnn(CCF)c4)C3)nc21 [Example 14, (R)-2-(1-(1-(2-fluoroethyl)-1H-pyrazol-4-yl)piperidin-3-yl)-7-methoxy-[1,2,4]triazolo[1,5-c]quinazolin-5-amine]
5 | 0.0005 | 0.147 | CCn1ncc(N2CCC[C@@H](c3nc4c5cccc(OC)c5nc(N)n4n3)C2)c1C [Example 15, (R)-2-(1-(1-ethyl-5-methyl-1H-pyrazol-4-yl)piperidin-3-yl)-7-methoxy-[1,2,4]triazolo[1,5-c]quinazolin-5-amine]
6 | 0.0008 | 0.0928 | COc1cccc2c1nc(N)n1nc([C@@H]3CCCN(c4cnn(CC5CC5)c4)C3)nc21 [Example 16, (R)-2-(1-(1-(cyclopropylmethyl)-1H-pyrazol-4-yl)piperidin-3-yl)-7-methoxy-[1,2,4]triazolo[1,5-c]quinazolin-5-amine]
7 | 0.001 | 0.0464 | COc1cccc2c1nc(N)n1nc([C@@H]3CCCN(c4cnn(C5CCC5)c4)C3)nc21 [Example 18, (R)-2-(1-(1-cyclobutyl-1H-pyrazol-4-yl)piperidin-3-yl)-7-methoxy-[1,2,4]triazolo[1,5-c]quinazolin-5-amine]
8 | 0.0013 | 0.0709 | COc1cccc2c1nc(N)n1nc([C@@H]3CCCN(c4cnn5c(C)cccc45)C3)nc21 [Example 19, (R)-7-methoxy-2-(1-(7-methylpyrazolo[1,5-a]pyridin-3-yl)piperidin-3-yl)-[1,2,4]triazolo[1,5-c]quinazolin-5-amine]
9 | 0.0016 | 0.102 | COc1cccc2c1nc(N)n1nc([C@@H]3CCCN(c4cnn(CC(C)(C)OC)c4)C3)nc21 [Example 22, (R)-7-methoxy-2-(1-(1-(2-methoxy-2-methylpropyl)-1H-pyrazol-4-yl)piperidin-3-yl)-[1,2,4]triazolo[1,5-c]quinazolin-5-amine]
10 | 0.002 | 0.0403 | COc1cccc2c1nc(N)n1nc([C@@H]3CCCN(c4cnn([C@@H]5CCC[C@H](O)[C@@]5(C)O)c4)C3)nc21 [Example 27, (1S,2S,6R)-6-(4-((R)-3-(5-amino-7-methoxy-[1,2,4]triazolo[1,5-c]quinazolin-2-yl)piperidin-1-yl)-1H-pyrazol-1-yl)-1-methylcyclohexane-1,2-diol]
11 | 0.0063 | 0.0483 | COc1cccc2c1nc(N)n1nc([C@@H]3CCCN(c4cnn(C(C)(C)C(=O)O)c4)C3)nc21 [Example 28, (R)-2-(4-(3-(5-amino-7-methoxy-[1,2,4]triazolo[1,5-c]quinazolin-2-yl)piperidin-1-yl)-1H-pyrazol-1-yl)-2-methylpropanoic acid]
12 | 0.0013 | 0.0247 | COc1cccc2c1nc(N)n1nc([C@@H]3CCCN(c4cnn([C@H]5CC[C@H](O)C5)c4)C3)nc21 [Example 29, (1S,3S)-3-(4-((R)-3-(5-amino-7-methoxy-[1,2,4]triazolo[1,5-c]quinazolin-2-yl)piperidin-1-yl)-1H-pyrazol-1-yl)cyclopentan-1-ol]
13 | 0.0508 | 1.7 | COc1cccc2c1nc(N)n1nc([C@@H]3CCCN(c4cnn(C5CC6(COC6)C5)c4)C3)nc21 [Example 31, (R)-2-(1-(1-(2-oxaspiro[3.3]heptan-6-yl)-1H-pyrazol-4-yl)piperidin-3-yl)-7-methoxy-[1,2,4]triazolo[1,5-c]quinazolin-5-amine]
14 | 0.0016 | 0.219 | COc1cccc2c1nc(N)n1nc([C@@H]3CCCN(c4cnn(CC5(O)CCC5)c4C)C3)nc21 [Example 34, (R)-1-((4-(3-(5-amino-7-methoxy-[1,2,4]triazolo[1,5-c]quinazolin-2-yl)piperidin-1-yl)-5-methyl-1H-pyrazol-1-yl)methyl)cyclobutan-1-ol]
15 | 0.0025 | 0.0294 | COc1cccc2c1nc(N)n1nc([C@@H]3CCCN(c4cnn(C5COC5)c4)C3)nc21 [Example 39, (R)-7-methoxy-2-(1-(1-(oxetan-3-yl)-1H-pyrazol-4-yl)piperidin-3-yl)-[1,2,4]triazolo[1,5-c]quinazolin-5-amine]
16 | 0.0031 | 0.0197 | CCC(O)(CC)Cn1cc(N2CCC[C@@H](c3nc4c5cccc(OC)c5nc(N)n4n3)C2)cn1 [Example 40]
17 | 0.0008 | 0.0222 | COc1cccc2c1nc(N)n1nc([C@@H]3CCCN(c4cnn(CC5(O)CCCC5)c4)C3)nc21 [Example 41, (R)-1-((4-(3-(5-amino-7-methoxy-[1,2,4]triazolo[1,5-c]quinazolin-2-yl)piperidin-1-yl)-1H-pyrazol-1-yl)methyl)cyclopentan-1-ol]
18 | 0.002 | 0.0327 | COc1cccc2c1nc(N)n1nc([C@@H]3CCCN(c4ccn(CC(C)(C)O)n4)C3)nc21 [Example 63, (R)-1-(3-(3-(5-amino-7-methoxy-[1,2,4]triazolo[1,5-c]quinazolin-2-yl)piperidin-1-yl)-1H-pyrazol-1-yl)-2-methylpropan-2-ol]
19 | 0.0008 | 0.54 | COc1cccc2c1nc(N)n1nc([C@@H]3CCCN(c4cc(C(F)(F)F)nn4C)C3)nc21 [Example 77, (R)-7-methoxy-2-(1-(1-methyl-3-(trifluoromethyl)-1H-pyrazol-5-yl)piperidin-3-yl)-[1,2,4]triazolo[1,5-c]quinazolin-5-amine]
20 | 0.0033 | 2.5 | COc1cccc2c1nc(N)n1nc([C@@H]3CCCN(c4cc(C(F)(F)F)n(C)n4)C3)nc21 [Example 78, (R)-7-methoxy-2-(1-(1-methyl-5-(trifluoromethyl)-1H-pyrazol-3-yl)piperidin-3-yl)-[1,2,4]triazolo[1,5-c]quinazolin-5-amine]
21 | 0.0016 | 0.146 | COc1cccc2c1nc(N)n1nc([C@@H]3CCCN(c4nnn(C)c4C)C3)nc21 [Example 79, (R)-2-(1-(1,5-dimethyl-1H-1,2,3-triazol-4-yl)piperidin-3-yl)-7-methoxy-[1,2,4]triazolo[1,5-c]quinazolin-5-amine]
22 | 0.0023 | 0.0182 | COc1cccc2c1nc(N)n1nc([C@@H]3CCCN(c4ncc[nH]4)C3)nc21 [Example 80, (R)-2-(1-(1H-imidazol-2-yl)piperidin-3-yl)-7-methoxy-[1,2,4]triazolo[1,5-c]quinazolin-5-amine]
23 | 0.0026 | 0.544 | COc1cccc2c1nc(N)n1nc([C@@H]3CCCN(c4nnc(C)o4)C3)nc21 [Example 82, (R)-7-methoxy-2-(1-(5-methyl-1,3,4-oxadiazol-2-yl)piperidin-3-yl)-[1,2,4]triazolo[1,5-c]quinazolin-5-amine]
24 | 0.0008 | 0.0783 | COc1cccc2c1nc(N)n1nc([C@@H]3CCCN(c4ncn(C)n4)C3)nc21 [Example 83, (R)-7-methoxy-2-(1-(1-methyl-1H-1,2,4-triazol-3-yl)piperidin-3-yl)-[1,2,4]triazolo[1,5-c]quinazolin-5-amine]
25 | 0.0016 | 0.187 | COc1cccc2c1nc(N)n1nc([C@@H]3CCCN(c4cnc(C5CC5)n4C)C3)nc21 [Example 84, (R)-2-(1-(2-cyclopropyl-1-methyl-1H-imidazol-5-yl)piperidin-3-yl)-7-methoxy-[1,2,4]triazolo[1,5-c]quinazolin-5-amine]
26 | 0.0149 | 0.314 | COc1cccc2c1nc(N)n1nc([C@@H]3CCCN(c4csc(C5CC5)n4)C3)nc21 [Example 85, (R)-2-(1-(2-cyclopropylthiazol-4-yl)piperidin-3-yl)-7-methoxy-[1,2,4]triazolo[1,5-c]quinazolin-5-amine]
27 | 0.0021 | 0.146 | COc1cccc2c1nc(N)n1nc([C@@H]3CCCN(c4cncn4C)C3)nc21 [Example 86, (R)-7-methoxy-2-(1-(1-methyl-1H-imidazol-5-yl)piperidin-3-yl)-[1,2,4]triazolo[1,5-c]quinazolin-5-amine]
28 | 0.0015 | 0.631 | COc1cccc2c1nc(N)n1nc([C@@H]3CCCN(c4ccn(C(C)C)c(=O)c4)C3)nc21 [Example 89, (R)-4-(3-(5-amino-7-methoxy-[1,2,4]triazolo[1,5-c]quinazolin-2-yl)piperidin-1-yl)-1-isopropylpyridin-2(1H)-one]
29 | 0.0019 | 5.93 | COc1cccc2c1nc(N)n1nc([C@@H]3CCCN(c4cc(=O)n(C)c5ccccc45)C3)nc21 [Example 90, (R)-4-(3-(5-amino-7-methoxy-[1,2,4]triazolo[1,5-c]quinazolin-2-yl)piperidin-1-yl)-1-methylquinolin-2(1H)-one]

Source: patent US12263171B2, “7-, 8-, and 10-substituted amino triazolo quinazoline derivatives as adenosine receptor antagonists, pharmaceutical compositions and their use” (Merck Sharp & Dohme LLC, priority 2018, dated 2025)
